Experimental findings from US9661854B2, “Molecules having pesticidal utility, and intermediates, compositions, and processes, related thereto” (Dow AgroSciences LLC, priority 2015, dated 2017) are described below.

Assay [1] deals with Beet Armyworm (Spodoptera exigua, LAPHEG). Description: Bioassay on Beet Armyworm (BAW), 128-well diet tray assay. Type of assay: in vivo. The note with it: 168 h, 50 μg/cm^2 on artificial diet, second instar larvae, 25° C., five to seven days, average of eight wells, read-out: BAW % Control (or Mortality) rating. The method in brief: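 Second-instar larvae, one to five per well, fed artificial diet surface-treated with 50 μg/cm^2 test molecule in 90:10 acetone-water, dried before infestation; eight wells per molecule. Held at 25 °C, 14:10 light-dark for five to seven days; percent mortality averaged over wells.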

In assay [2] the test system is Cabbage Looper (Trichoplusia ni, TRIPNI). Description: Bioassay on Cabbage Looper (CL), 128-well diet tray assay. The class given is in vivo. The note with it: 168 h, 50 μg/cm^2 on artificial diet, second instar larvae, 25° C., five to seven days, average of eight wells, read-out: CL % Control (or Mortality) rating. An outline of the steps:
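Second-instar larvae (one to five per well) placed on artificial diet treated with 50 μg/cm^2 test molecule in 90:10 acetone-water, dried; eight wells per molecule. Held at 25° C., 14:10 light-dark, for five to seven days. Percent mortality scored per well and averaged over the eight wells.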

SMILES strings stand for the structures.

For the compound `COc1cc(CCc2ncn(-c3ccc(OC(F)(F)F)cc3)n2)ccc1NC(=O)/N=C1\SCC(=O)N1c1cc(C)ccc1C(C)C` [F20, (Z)-1-(3-(2-Isopropyl-5-methylphenyl)-4-oxothiazolidin-2-ylidene)-3-(2-methoxy-4-(2-(1-(4-(trifluoromethoxy)phenyl)-1H-1,2,4-triazol-3-yl)ethyl)phenyl)urea], the mortality at 50 µg/cm2 in assay [1] and in assay [2] was 50 to 100% each time.
`Cc1ccc(C(C)C)c(N2C(=O)CS/C2=N\C(=O)Nc2ccc(CCc3ncn(-c4ccc(OC(F)(F)F)cn4)n3)cn2)c1` [F33, (Z)-1-(3-(2-Isopropyl-5-methylphenyl)-4-oxothiazolidin-2-ylidene)-3-(5-(2-(1-(5-(trifluoromethoxy)pyridin-2-yl)-1H-1,2,4-triazol-3-yl)ethyl)pyridin-2-yl)urea]: the mortality at 50 µg/cm2 in assay [1] and in assay [2] was 50 to 100% throughout.
Turning to `Cc1ccc(C2CC2(F)F)c(N2C(=O)CS/C2=N\C(=O)Nc2ccc(CCc3ncn(-c4ccc(OC(F)(F)F)cc4)n3)cc2F)c1` (stereo not drawn) [F30, (Z)-1-(3-(2-(2,2-Difluorocyclopropyl)-5-methylphenyl)-4-oxothiazolidin-2-ylidene)-3-(2-fluoro-4-(2-(1-(4-(trifluoromethoxy)phenyl)-1H-1,2,4-triazol-3-yl)ethyl)phenyl)urea], the mortality at 50 µg/cm2 in assay [1] and in assay [2] was 50 to 100% each time.
Turning to `COCc1ccc(C)cc1N1C(=O)CS/C1=N\C(=O)Nc1c(F)cc(/C=C/c2ncn(-c3ccc(OC(F)(F)F)cc3)n2)cc1F` [F68, 1-(2,6-Difluoro-4-((E)-2-(1-(4-(trifluoromethoxy)phenyl)-1H-1,2,4-triazol-3-yl)vinyl)phenyl)-3-((Z)-3-(2-(methoxymethyl)-5-methylphenyl)-4-oxothiazolidin-2-ylidene)urea], the mortality at 50 µg/cm2 in assay [1] and in assay [2] was 50 to 100% in each case.
On to `Cc1ccc(C2CC2(F)F)c(N2C(=O)CS/C2=N\C(=O)Nc2ccc(/C=C/c3ncn(-c4ccc(OC(F)(F)F)cc4)n3)cc2)c1` (stereo not drawn) [F66, 1-((Z)-3-(2-(2,2-Difluorocyclopropyl)-5-methylphenyl)-4-oxothiazolidin-2-ylidene)-3-(4-((E)-2-(1-(4-(trifluoromethoxy)phenyl)-1H-1,2,4-triazol-3-yl)vinyl)phenyl)urea], for which the mortality at 50 µg/cm2 in assay [1] and in assay [2] was 50 to 100% each time.
`Cc1ccc(C(C)C)c(N2C(=O)CS/C2=N\C(=O)Nc2ccc(CCc3ncn(-c4ncc(C(F)(F)F)cc4Cl)n3)cc2)c1` [F34, (Z)-1-(4-(2-(1-(3-Chloro-5-(trifluoromethyl)pyridin-2-yl)-1H-1,2,4-triazol-3-yl)ethyl)phenyl)-3-(3-(2-isopropyl-5-methylphenyl)-4-oxothiazolidin-2-ylidene)urea]: the mortality (commonly the share of the test organisms that died) at 50 µg/cm2 was 0% in assay [1] and 50 to 100% in assay [2].
With `COc1cc(/C=C/c2ncn(-c3ccc(OC(F)(F)F)cc3)n2)ccc1NC(=O)/N=C1\SCC(=O)N1c1cc(C)ccc1C(C)C` [F58, 1-((Z)-3-(2-isopropyl-5-methylphenyl)-4-oxothiazolidin-2-ylidene)-3-(2-methoxy-4-((E)-2-(1-(4-(trifluoromethoxy)phenyl)-1H-1,2,4-triazol-3-yl)vinyl)phenyl)urea], the mortality at 50 µg/cm2 in assay [1] and in assay [2] was 50 to 100% throughout.
In the case of `O=C(/N=C1\SCC(=O)N1C1CCCCC1)Nc1ccc(CCc2ncn(-c3ccc(OC(F)(F)F)cc3)n2)cc1` [F35, (Z)-1-(3-Cyclohexyl-4-oxothiazolidin-2-ylidene)-3-(4-(2-(1-(4-(trifluoromethoxy)phenyl)-1H-1,2,4-triazol-3-yl)ethyl)phenyl)urea], the mortality at 50 µg/cm2 in assay [1] and in assay [2] was 50 to 100% in each case.
Consider `Cc1ccc(C(C)C)c(N2C(=O)CS/C2=N\C(=O)Nc2ccc(C3CC3c3ncn(-c4ccc(OC(F)(F)F)cc4)n3)cc2)c1` (stereo not drawn) [F73, (Z)-1-(3-(2-Isopropyl-5-methylphenyl)-4-oxothiazolidin-2-ylidene)-3-(4-(2-(1-(4-(trifluoromethoxy)phenyl)-1H-1,2,4-triazol-3-yl)cyclopropyl)phenyl)urea], for which the mortality at 50 µg/cm2 in assay [1] and in assay [2] was 50 to 100% throughout.
With `CCCc1ccc(C)cc1N1C(=O)CS/C1=N\C(=O)Nc1ccc(CCc2ncn(-c3ccc(OC(F)(F)F)cc3)n2)cc1` [F7, (Z)-1-(3-(5-Methyl-2-propylphenyl)-4-oxothiazolidin-2-ylidene)-3-(4-(2-(1-(4-(trifluoromethoxy)phenyl)-1H-1,2,4-triazol-3-yl)ethyl)phenyl)urea], the mortality at 50 µg/cm2 in assay [1] and in assay [2] was 50 to 100% throughout.
Take `COc1cc(NC(=O)/N=C2\SCC(=O)N2c2cc(C)ccc2C(C)C)ccc1/C=C/c1ncn(-c2ccc(OC(F)(F)F)cc2)n1` [F40, 1-((Z)-3-(2-Isopropyl-5-methylphenyl)-4-oxothiazolidin-2-ylidene)-3-(3-methoxy-4-((E)-2-(1-(4-(trifluoromethoxy)phenyl)-1H-1,2,4-triazol-3-yl)vinyl)phenyl)urea]: the mortality at 50 µg/cm2 in assay [1] and in assay [2] was 50 to 100% each time.
For `Cc1cc(N2C(=O)CS/C2=N\C(=O)Nc2ccc(CCc3ncn(-c4ccc(OC(F)(F)F)cc4)n3)cc2)c(C(C)C)cc1F` [F9, (Z)-1-(3-(4-Fluoro-2-isopropyl-5-methylphenyl)-4-oxothiazolidin-2-ylidene)-3-(4-(2-(1-(4-(trifluoromethoxy)phenyl)-1H-1,2,4-triazol-3-yl)ethyl)phenyl)urea], the mortality at 50 µg/cm2 in assay [1] and in assay [2] was 50 to 100% each time.
For the compound `Cc1ccc(OC(F)(F)F)c(N2C(=O)CS/C2=N\C(=O)Nc2ccc(CCc3ncn(-c4ccc(OC(F)(F)F)cc4)n3)cc2)c1` [F12, (Z)-1-(3-(5-Methyl-2-(trifluoromethoxy)phenyl)-4-oxothiazolidin-2-ylidene)-3-(4-(2-(1-(4-(trifluoromethoxy)phenyl)-1H-1,2,4-triazol-3-yl)ethyl)phenyl)urea], the mortality at 50 µg/cm2 in assay [1] and in assay [2] was 50 to 100% throughout.
For `COCc1ccc(C)cc1N1C(=O)CS/C1=N\C(=O)Nc1ccc(CCc2ncn(-c3ccc(OC(F)(F)F)cc3)n2)cc1F` [F22, (Z)-1-(2-Fluoro-4-(2-(1-(4-(trifluoromethoxy)phenyl)-1H-1,2,4-triazol-3-yl)ethyl)phenyl)-3-(3-(2-(methoxymethyl)-5-methylphenyl)-4-oxothiazolidin-2-ylidene)urea], the mortality at 50 µg/cm2 in assay [1] and in assay [2] was 50 to 100% throughout.
Take `Cc1ccc(OC(C)(C)C)c(N2C(=O)CS/C2=N\C(=O)Nc2ccc(/C=C/c3ncn(-c4ccc(OC(F)(F)F)cc4)n3)cc2)c1` [F52, 1-((Z)-3-(2-(tert-Butoxy)-5-methylphenyl)-4-oxothiazolidin-2-ylidene)-3-(4-((E)-2-(1-(4-(trifluoromethoxy)phenyl)-1H-1,2,4-triazol-3-yl)vinyl)phenyl)urea]: the mortality at 50 µg/cm2 in assay [1] and in assay [2] was 50 to 100% throughout.
As to `CC(C)c1ccc(C(F)(F)F)cc1N1C(=O)CS/C1=N\C(=O)Nc1ccc(/C=C/c2ncn(-c3ccc(OC(F)(F)F)cc3)n2)cc1` [F65, 1-((Z)-3-(2-isopropyl-5-(trifluoromethyl)phenyl)-4-oxothiazolidin-2-ylidene)-3-(4-((E)-2-(1-(4-(trifluoromethoxy)phenyl)-1H-1,2,4-triazol-3-yl)vinyl)phenyl)urea], the mortality at 50 µg/cm2 in assay [1] and in assay [2] was 50 to 100% each time.
For the compound `CCC(C)Oc1ccc(C)cc1N1C(=O)CS/C1=N\C(=O)Nc1ccc(/C=C/c2ncn(-c3ccc(OC(F)(F)F)cc3)n2)cc1` (stereo not drawn) [F48, 1-((Z)-3-(2-(sec-Butoxy)-5-methylphenyl)-4-oxothiazolidin-2-ylidene)-3-(4-((E)-2-(1-(4-(trifluoromethoxy)phenyl)-1H-1,2,4-triazol-3-yl)vinyl)phenyl)urea], the mortality at 50 µg/cm2 in assay [1] and in assay [2] was 50 to 100% in each case.
Regarding `Cc1ccc(OC(F)(F)F)c(N2C(=O)CS/C2=N\C(=O)Nc2ccc(/C=C/c3ncn(-c4ccc(OC(F)(F)F)cc4)n3)cc2)c1` [F50, 1-((Z)-3-(5-Methyl-2-(trifluoromethoxy)phenyl)-4-oxothiazolidin-2-ylidene)-3-(4-((E)-2-(1-(4-(trifluoromethoxy)phenyl)-1H-1,2,4-triazol-3-yl)vinyl)phenyl)urea], the mortality at 50 µg/cm2 in assay [1] and in assay [2] was 50 to 100% throughout.
As for `Cc1ccc(F)c(N2C(=O)CS/C2=N\C(=O)Nc2ccc(/C=C/c3ncn(-c4ccc(OC(F)(F)F)cc4)n3)cc2)c1` [F41, 1-((Z)-3-(2-Fluoro-5-methylphenyl)-4-oxothiazolidin-2-ylidene)-3-(4-((E)-2-(1-(4-(trifluoromethoxy)phenyl)-1H-1,2,4-triazol-3-yl)vinyl)phenyl)urea], the mortality at 50 µg/cm2 in assay [1] and in assay [2] was 50 to 100% each time.
For `Cc1ccc(C(C)C)c(-n2ccs/c2=N\C(=O)Nc2ccc(CCc3ncn(-c4ccc(OC(F)(F)F)cc4)n3)cc2)c1` [F36, (Z)-1-(3-(2-Isopropyl-5-methylphenyl)thiazol-2(3H)-ylidene)-3-(4-(2-(1-(4-(trifluoromethoxy)phenyl)-1H-1,2,4-triazol-3-yl)ethyl)phenyl)urea], the mortality at 50 µg/cm2 in assay [1] and in assay [2] was 50 to 100% throughout.
As to `O=C(/N=C1\SCC(=O)N1C1CCCCC1)Nc1ccc(/C=C/c2ncn(-c3ccc(OC(F)(F)F)cc3)n2)cc1F` [F78, 1-((Z)-3-Cyclohexyl-4-oxothiazolidin-2-ylidene)-3-(2-fluoro-4-((E)-2-(1-(4-(trifluoromethoxy)phenyl)-1H-1,2,4-triazol-3-yl)vinyl)phenyl)urea], the mortality at 50 µg/cm2 in assay [1] and in assay [2] was 50 to 100% each time.
